According to patent US5061794A, “Cephalosporin derivatives, and antibacterial agents” (priority 1986, dated 1991):
Counter-ions that a name gives are not always drawn. Like-named read-outs stand apart in the source and are kept apart here.

Assays:
K. oxytoca GN10650 = test: in vitro antibacterial activity, agar plate dilution method (MIC); type: cell-based; conditions: Klebsiella oxytoca, GN10650, 16 h, read-out: Minimum Inhibitory Concentration (MIC), *K. oxytoca GN10650, lactamase-producing strain; 10^6 CFU/ml
Summary of the method: (§1)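 Each organism, pre-grown overnight in Mueller Hinton broth, is inoculated at 10^6 CFU/ml onto Mueller Hinton agar series with increasing compound concentration; growth inhibition is scored after 16 h, 37° C., giving MIC (μg/ml).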

S. aureus 209P NIHJ-JC1 = test: as above; type: cell-based; conditions: Staphylococcus aureus, 16 h
Summary of the method: as §1

P. vulgaris No. 33 = test: as above; type: cell-based; conditions: Proteus vulgaris, NO.33, 16 h, read-out: Minimum Inhibitory Concentration (MIC), *P. vulgaris No. 33, lactamase-producing strain; 10^6 CFU/ml
Summary of the method: as §1

E. coli NIHJ JC2 = test: as above; type: cell-based; conditions: Escherichia coli, NIHJJC2, 16 h, read-out: Minimum Inhibitory Concentration (MIC), E. coli NIHJ JC2, 10^6 CFU/ml, 37° C.
Summary of the method: as §1

E. coli GN5482 = test: as above; type: cell-based; conditions: Escherichia coli, GN5482, 16 h
Summary of the method: as §1

P. vulgaris HX-19 = test: as above; type: cell-based; conditions: Proteus vulgaris, HX19, 16 h, P. vulgaris HX-19; 10^6 CFU/ml; read-out: Minimum Inhibitory Concentration (MIC)
Summary of the method: as §1

K. pneumoniae No. 42 = test: as above; type: cell-based; conditions: Klebsiella pneumoniae, 10^6 CFU/ml
Summary of the method: as §1

K. pneumoniae PCI-602 = test: as above; type: cell-based; conditions: Klebsiella pneumoniae, PCI602, 16 h, read-out: Minimum Inhibitory Concentration (MIC), K. pneumoniae PCI-602; 10^6 CFU/ml
Summary of the method: as §1

E. cloacae 963 = test: as above; type: cell-based; conditions: 10^6 CFU/ml
Summary of the method: as §1

M. morganii GN5407 = test: as above; type: cell-based; conditions: Morganella morganii, GN5407, 16 h, read-out: Minimum Inhibitory Concentration (MIC), *M. morganii GN5407, lactamase-producing strain; 10^6 CFU/ml
Summary of the method: as §1

S. marcescens No. 16-2 = test: as above; type: cell-based; conditions: Serratia marcescens, NO.162, 16 h
Summary of the method: as §1

S. marcescens IAM 1184 = test: as above; type: cell-based; conditions: Serratia marcescens, IAM1184, 16 h, read-out: Minimum Inhibitory Concentration (MIC)
Summary of the method: as §1

E. cloacae Nek 39 = test: as above; type: cell-based; conditions: Enterobacter cloacae, NEK39, 16 h, read-out: Minimum Inhibitory Concentration (MIC), *E. cloacae Nek 39, lactamase-producing strain; 10^6 CFU/ml
Summary of the method: as §1

E. coli CSH2 (RK1) = test: microbe, parasite or virus in culture; type: cell-based; conditions: Escherichia coli, 16 h, read-out: Minimum Inhibitory Concentration (MIC), *E. coli CSH2 (RK1), lactamase-producing strain; 10^6 CFU/ml
Summary of the method: as §1

E. coli CSH(RE45) = test: microbe, parasite or virus in culture; type: cell-based; conditions: Escherichia coli, 16 h, read-out: Minimum Inhibitory Concentration (MIC), *E. coli CSH(RE45), lactamase-producing strain; 10^6 CFU/ml
Summary of the method: as §1

A. calcoaceticus No. 4 = test: in vitro antibacterial activity, agar plate dilution method (MIC); type: cell-based, Acinetobacter calcoaceticus; conditions: Acinetobacter calcoaceticus, NO.4, 16 h, 10^6 CFU/ml
Summary of the method: as §1

Ps. cepacia 23 = test: as above; type: cell-based, Pseudomonas cepacia; conditions: read-out: Minimum Inhibitory Concentration (MIC)
Summary of the method: as §1

Ps. aeruginosa AKR17 = test: as above; type: cell-based, Pseudomonas aeruginosa; conditions: Pseudomonas aeruginosa, 16 h; Ps. aeruginosa AKR17; 10^6 CFU/ml; read-out: Minimum Inhibitory Concentration (MIC)
Summary of the method: as §1

Ps. aeruginosa IF03445 = test: as above; type: cell-based, Pseudomonas aeruginosa; conditions: Pseudomonas aeruginosa, IF03445, 16 h, read-out: Minimum Inhibitory Concentration (MIC), Ps. aeruginosa IF03445; 10^6 CFU/ml
Summary of the method: as §1

Ps. aeruginosa AK 109 = test: as above; type: cell-based, Pseudomonas aeruginosa; conditions: Pseudomonas aeruginosa, AK109, 16 h
Summary of the method: as §1

[1] = read-out: Minimum Inhibitory Concentration (MIC), S. aureus 209P NIHJ-JC1, 10^6 CFU/ml, 37° C., 16 hours
[2] = read-out: Minimum Inhibitory Concentration (MIC), *E. coli GN5482, lactamase-producing strain, 10^6 CFU/ml
[3] = NO.42, 16 h, read-out: Minimum Inhibitory Concentration (MIC), *K. pneumoniae No. 42, lactamase-producing strain
[4] = Enterobacter cloacae, 963, 16 h, read-out: Minimum Inhibitory Concentration (MIC), E. cloacae 963
[5] = S. marcescens IAM 1184, 10^6 CFU/ml
[6] = Burkholderia cepacia, 16 h, Ps. cepacia 23, 10^6 CFU/ml
[7] = read-out: Minimum Inhibitory Concentration (MIC)
[8] = read-out: Minimum Inhibitory Concentration (MIC), A. calcoaceticus No. 4

Structure (SMILES) | MIC (K. oxytoca GN10650) | MIC (S. aureus 209P NIHJ-JC1; [1]) | MIC (P. vulgaris No. 33) | MIC (E. coli NIHJ JC2) | MIC (E. coli GN5482; [2]) | MIC (P. vulgaris HX-19) | MIC (K. pneumoniae No. 42; [3]) | MIC (K. pneumoniae PCI-602) | MIC (E. cloacae 963; [4]) | MIC (M. morganii GN5407) | MIC (S. marcescens IAM 1184; [5]) | MIC (E. cloacae Nek 39) | MIC (E. coli CSH2 (RK1)) | MIC (E. coli CSH(RE45)) | MIC (Ps. cepacia 23; [6]) | MIC (Ps. aeruginosa AKR17) | MIC (Ps. aeruginosa IF03445) | MIC (S. marcescens No. 16-2; [7]) | MIC (A. calcoaceticus No. 4; [8]) | further results
CO/N=C(\C(=O)N[C@@H]1C(=O)N2C(C(=O)O)=C(CSc3nnc(-c4ccc(O)c(O)c4)s3)CS[C@H]12)c1csc(N)n1 [Ex. 25, sodium 7β-[2-(2-aminothiazol-4-yl)-2-methoxviminoacetamido]-3-[5-(3,4-dihydroxyphenyl)-1,3,4-thiadiazol-2-yl]thiomethyl-3-cephem-4-carboxylate] | 0.78 µg/mL | 0.78 µg/mL | 0.025 µg/mL | 0.2 µg/mL | 0.78 µg/mL | < 0.006 µg/mL | 0.0125 µg/mL | < 0.006 µg/mL | 0.025 µg/mL | 0.025 µg/mL | 0.0125 µg/mL | 0.39 µg/mL | < 0.006 µg/mL | 0.025 µg/mL | < 0.006 µg/mL | 100 µg/mL | 0.78 µg/mL | – | – | MIC (S. marcescens No. 16-2; read-out: Minimum Inhibitory Concentration (MIC), *S. marcescens No. 16-2, lactamase-producing strain, 10^6 CFU/ml): 1.56 µg/mL; MIC (A. calcoaceticus No. 4; A. calcoaceticus No. 4, read-out: Minimum Inhibitory Concentration (MIC)): 0.2 µg/mL; MIC (Ps. aeruginosa AK 109; read-out: Minimum Inhibitory Concentration (MIC), Ps. aeruginosa AK 109, 10^6 CFU/ml): 0.78 µg/mL
C#CCO/N=C(\C(=O)N[C@@H]1C(=O)N2C(C(=O)O)=C(CSc3nnc(-c4ccc(O)c(O)c4)s3)CS[C@H]12)c1csc(N)n1 [Ex. 31, sodium 7β-[2-(2-aminothiazol-4-yl)-2-proparqyloxyiminoacetamido]-3-[5-(3,4-dihvdroxyphenyl)-1,3,4-thiadiazol-2-yl]thiomethyl-3-cephem-4-carboxylate] | 0.78 µg/mL | 0.78 µg/mL | 0.025 µg/mL | 0.1 µg/mL | – | < 0.006 µg/mL | – | < 0.006 µg/mL | 0.0125 µg/mL | 0.0125 µg/mL | – | 0.2 µg/mL | < 0.006 µg/mL | 0.0125 µg/mL | – | 100 µg/mL | 0.78 µg/mL | 0.39 µg/mL | 0.1 µg/mL | MIC (E. coli GN5482; [7]): 0.39 µg/mL; MIC (K. pneumoniae No. 42; 16 h, *K. pneumoniae No. 42, lactamase-producing strain, read-out: Minimum Inhibitory Concentration (MIC)): < 0.006 µg/mL; MIC (S. marcescens IAM 1184): 0.0125 µg/mL; MIC (Ps. cepacia 23; Burkholderia cepacia, 23, 16 h): 0.0125 µg/mL; MIC (Ps. aeruginosa AK 109; Ps. aeruginosa AK 109, 10^6 CFU/ml, read-out: Minimum Inhibitory Concentration (MIC)): 0.2 µg/mL
Nc1nc(/C(=N/OCc2ccccc2)C(=O)N[C@@H]2C(=O)N3C(C(=O)O)=C(CSc4nnc(-c5ccc(O)c(O)c5)s4)CS[C@H]23)cs1 [Ex. 32, 7β-[2-(2-aminothiazol-4-yl)-2-benzyloxviminoacetamido]-3-[5-(3,4-dihydroxvphenvl)-1,3,4-thiadiazol-2-yl]thiomethyl-3-cephem-4-carboxylic acid trifluoroacetate] | 0.39 µg/mL | – | 0.2 µg/mL | 0.39 µg/mL | 0.78 µg/mL | 0.0125 µg/mL | 0.0125 µg/mL | < 0.006 µg/mL | – | 0.1 µg/mL | 0.025 µg/mL | 0.2 µg/mL | < 0.006 µg/mL | 1.56 µg/mL | < 0.006 µg/mL | > 100 µg/mL | 0.78 µg/mL | 12.5 µg/mL | 0.39 µg/mL | MIC (S. aureus 209P NIHJ-JC1; [7]): 0.39 µg/mL; MIC (E. cloacae 963; Enterobacter cloacae, 16 h, E. cloacae 963, read-out: Minimum Inhibitory Concentration (MIC)): 0.1 µg/mL; MIC (Ps. aeruginosa AK 109; [7]): 0.39 µg/mL
